Assay results as given in PMC7297445, “Pharmacokinetic/Pharmacodynamic Determination and Preclinical Pharmacokinetics of the β-Lactamase Inhibitor ETX1317 and Its Orally Available Prodrug ETX0282” (ACS Infectious Diseases, 2020).
Like-named read-outs stand apart in the source and are kept apart here.

Experiments:
[1] = test system: Enterobacteriaceae isolates; assay: Hollow-fiber and chemostat models, strains combined; assay type: cell-based, E. coli, K. pneumoniae
Description: The PK/PD driver of ETX1317 was assessed in the presence of CPD in both hollow-fiber[28]−[31] and chemostat[32]in vitro infection model systems. In all cases, CPD was administered q12h via a 2 h infusion and eliminated with a 2 h half-life, with the concentration of drug exceeding the MIC (the MIC of CPD in the presence of ETX1317 at a 1:2 ratio) for 50% of the dosing interval for each strain. Representative Emax plots are shown graphically for Escherichia coli ARC2687 in the hollow-fiber model and Klebsiella pneumoniae ARC4420 in the chemostat system (Figure 2). […] This could partially be attributed to the distribution of the concentration ranges utilized for the hollow-fiber infection model (HFIM) where most of the data scatter occurred in the efficacious dose range for lower MIC strains. It is important to note that initial evaluation of K. pneumoniae ARC4420 and ARC5118 was completed in the HFIM but rapid degradation of CPD, presumably through accumulation of β-lactamases in the extra-capillary space of the cartridge precluded a reliable assessment of the PK/PD driver with these strains in this model.[32] […] In both the HFIM and chemostat models the optimum critical threshold of ETX1317 was established through iterative Emax fitting of a range of ETX1317 concentrations from 0.5× to 2× the CPD:ETX1317 MIC value. In the HFIM, %Time > ETX1317 CT of 2× MIC provided the highest correlation to observed activity which appeared to be independent to the apparent intrinsic activity of ETX1317 (as reflected by ETX1317 MICBLI of K. pneumoniae ARC4486 vs ARC4488). […] In both models CPD infused alone mimicked vehicle control as expected with similar growth of +2 to 4 log10 CFU/mL.
PK/PD-derived exposure targets for BLIs have utilized various approaches for clinical dose setting. The use of a singular critical threshold value independent of MIC has been used for recent BL/BLI combinations such as ceftazidime/avibactam[34] aztreonam/avibactam,[35] but this has been problematic to correlate activity across a broad range of MICs. More recent work with ceftolozane/tazobactam[36] and other BLI combinations[37],[38] considers a critical threshold value that varies proportionally to the MIC value. […] Convergence of the data to a threshold value related to MIC simplifies dose setting and, in this case, appears to be consistent across a broad range of susceptibility (0.125–1 μg/mL).
Dose range and dose fractionation were performed in hollow-fiber infection model (HFIM) and chemostat (one-compartment) in vitro infection model. […] CPD concentrations were targeted to achieve exposure of ∼50%Time > MIC determined in the presence of ETX1317. […] Bacterial burden (CFU/mL) was serially assessed by sampling (500 μL) from the extra-capillary space of the HFIM cartridge at predetermined time points. […]

[2] = Intravenous pharmacokinetics of ETX1317; assay type: in vivo, rat; settings: i.v. 10 mg/kg
Description: Intravenous pharmacokinetics of ETX1317 investigated in jugular vein cannulated male Sprague–Dawley rats (Charles River Laboratories, n = 3/route) at a dose of 10 mg/kg formulated in 0.9% saline. Oral pharmacokinetics of ETX0282 was evaluated at a 10 mg/kg equivalent dose of ETX1317 formulated in 25:75 PEG 400:WFI. The pH of each formulation was verified to fall within a range of 4–7 and were confirmed to be in solution prior to dosing. Potency was verified by LC/MS/MS. Dose volumes were 5 and 10 mL/kg for ETX1317(i.v.) and ETX0282(p.o.), respectively for rats. In both dog (male, 3/route) and monkey (male, 3/route) studies, i.v. and p.o. doses were formulated on 25:75 PEG 400:WFI (pH ∼5) and administered at a dose of ∼1 mg/kg. Dose volume was 1 mL/kg for both routes in dogs and monkeys with the i.v. dose infused over 15 min. For oral doses, gavage tubes were flushed with 10 mL after administration of the dose. i.v. doses were sterile-filtered through 0.22 μm PVDF membrane prior to administration into the cephalic vein.
Blood samples to be processed for plasma using K2EDTA as an anticoagulant were taken at 0.08, 0.17, 0.25, 0.5, 1, 2, 4, and 8 h (i.v.) and 0.25, 0.5, 1, 2, 4, 8, and 24 h (p.o.) post dose in rats. Blood samples collected into 0.5 mL BD microtainers containing 1.0 mg K2EDTA were centrifuged in a microfuge for 10 min, plasma pipetted to 96 well cryo tubes, and stored at −80 °C prior to analysis.
Urine collection was collected directly into Nalgene bottles placed under metabolism cages with frozen ice packs to chill urine over the collection interval. Urine was collected 0–12, and 12–24 h post-dose. Following collection of each urine sample, the total urine weight was recorded and 3 mL aliquots were retained for LC/MS/MS analysis.
Non-compartmental analysis of time vs concentration data for ETX1317, ETX0282, CPD, and CPDP was completed using WinNonlin 8.1 (Pharsite Corporation, Mountain View CA). The maximum concentration (Cmax) was the highest observed concentration; Tmax was the earliest time at which Cmax occurred; and the elimination half-life was estimated as ln 2/kel, where kel is the elimination rate constant derived from the slope of the log concentration versus time profile. The area under the concentration–time curve from 0 h to the last time point (AUC0-tlast) was calculated by linear trapezoidal approximation. Clearance (CL) was estimated as Dose/AUC0-tlast and the steady state volume of distribution (Vd,ss) was estimated as CL* MRT, where MRT = AUMC/AUC (MRT = mean residence time and AUMC = area under the moment curve). Oral bioavailability (F) was determined from ETX1317 concentrations and normalizing doses to free acid equivalence, where F = AUCp.o.*(dosei.v.)/AUCi.v.*(dosep.o.).

[3] = male, Sprague-Dawley, rat, plasma, iv

CC1=C[C@@H](C(N)=O)N2C[C@@H]1N(O[C@H](F)C(=O)O)C2=O [ETX1317]
growth ([1]; infused alone q12h to a Cmax of 16 μg/mL, 100%Time > MICBLI): +0.5 log | % of dosing interval with unbound concentration > 2× MIC associated with reducing bacterial burden below stasis ([1]; with CPD): 50% | % of dosing interval with concentration > 2× MIC for cidal activity ([1]; with CPD 50%Time > MIC, in vitro and in vivo models): 60% | CL ([2]; 10 mg/kg): 23.1 ± 1.1 mL/min/kg | clearance ([2]; male, Sprague-Dawley, rat, plasma, iv, 10 mg/kg, read-out: CL): 23 mL/min/kg | AUC [2, 3]: 7190 ± 340 ng·h/mL | Cmax [2, 3]: 17500 ± 2000 ng/mL | half-life [2, 3]: 24 ± 1.2 min | Vd ([2]; male, Sprague-Dawley, rat, plasma, iv, read-out: Vd,ss): 0.7 ± 0.01 L/kg | clearance ([2]; male, Sprague-Dawley, rat, urine and plasma, iv, 10 mg/kg, read-out: renal CL): 13.4 ± 0.3 mL/min/kg
